Experimental data from patent publication US20110160462A1, “CRYSTALLINE FORMS OF THIAZOLIDINEDIONE COMPOUND AND ITS MANUFACTURING METHOD” (DAIICHI SANKYO COMPANY, LIMITED, priority 2008, published 2011).
“Also recorded” adds a separate entry of the source. Read-outs that look alike come from different tables or passages of the source.

Assays:
[1] = Solubility in dilute hydrochloric acid (Test Example 3); settings: for The concentration of 5-(4-{[6-(4-amino-3,5-dimethylphenoxy)-1-methyl-1-H-benzimidazol-2-yl]methoxy}benzyl)-1,3-thiazolidine-2,4-dione in dilute hydrochloric acid: dilute hydrochloric acid 9.6 mg/g (pH about 0.7), 25° C., 500 mg in 5 mL, sampled after 6 minutes
Experimental: Concentrated hydrochloric acid was diluted with water to prepare dilute hydrochloric acid (with a pH of about 0.7 at 25° C.) with a hydrochloric acid concentration of 9.6 mg/g, which was used as a test liquid. 500 mg of the crystalline form was weighed and added to 5 mL of the test liquid at 25° C. and stirred at the same temperature. After 6 minutes, the resulting test liquid was sampled and filtered. The concentration of 5-(4-{[6-(4-amino-3,5-dimethylphenoxy)-1-methyl-1-H-benzimi dazol-2-yl]methoxy}benzyl) 3-thiazolidine-2,4-dione in the filtrate was determined.
The concentration of 5-(4-{[6-(4-amino-3,5-dimethylphenoxy)-1-methyl-1-H-benzimi dazol-2-yl]methoxy}benzyl) 3-thiazolidine-2,4-dione was determined by the method described below.
Water, acetonitrile and methanol were mixed in a volume ratio of 55:40:5 to form a sample solvent.
In the sample solvent was dissolved 0.2 g of isoamyl 4-hydroxybenzoate so that 200 mL of an internal standard solution was obtained. About 0.04 g of a standard sample of 5-(4-{[6-(4-amino-3,5-dimethylphenoxy)-1-methyl-1-H-benzimi dazol-2-yl]methoxy}benzyl)-1,3-thiazolidine-2,4-dione dihydrochloride monohydrate was precisely weighed, transferred to a 200 mL measuring flask and dissolved in the sample solvent to form 200 mL of a solution. 5 mL of the solution was precisely measured and transferred to a 50 mL measuring flask. 10 mL of the internal standard solution was precisely added to the measuring flask, and the sample solvent was further added thereto to form 50 mL of a standard solution.
After sampling, the test liquid was filtered, and about 0.04 g of the filtered test liquid was precisely weighed and transferred to a 50 mL measuring flask. About 2.5 mL of dimethyl sulfoxide was added thereto. After 10 mL of the internal standard solution was added thereto, the sample solvent was further added thereto to form 50 mL of a sample solution.
The concentration was measured under the test conditions below.
The concentration is calculated from the following formula.
The concentration (mg/g) of the test liquid=1000×(QT×WS×FP×502.58)/(QS×WT×40×593.52),
wherein WS: the weight (g) of the standard sample when the standard solution is prepared; WT: the weight (g) of the test liquid when the sample solution is prepared; FP: the purity factor of the standard sample; QS: the value obtained by dividing the peak area of the standard sample in the chromatogram of the standard solution by the peak area of the internal standard; and QT: the value obtained by dividing the peak area of the sample in the chromatogram of the sample solution by the peak area of the internal standard.

[2] = as disclosed in Japanese Patent No. 3488099; cited from earlier work
[3] = target: T1, peroxisome proliferator-activated receptor (PPAR) γ (Homo sapiens, UniProt P37231); settings: as disclosed in Patent Documents 1 to 5; cited from earlier work
T1 sequence (P37231 1-505): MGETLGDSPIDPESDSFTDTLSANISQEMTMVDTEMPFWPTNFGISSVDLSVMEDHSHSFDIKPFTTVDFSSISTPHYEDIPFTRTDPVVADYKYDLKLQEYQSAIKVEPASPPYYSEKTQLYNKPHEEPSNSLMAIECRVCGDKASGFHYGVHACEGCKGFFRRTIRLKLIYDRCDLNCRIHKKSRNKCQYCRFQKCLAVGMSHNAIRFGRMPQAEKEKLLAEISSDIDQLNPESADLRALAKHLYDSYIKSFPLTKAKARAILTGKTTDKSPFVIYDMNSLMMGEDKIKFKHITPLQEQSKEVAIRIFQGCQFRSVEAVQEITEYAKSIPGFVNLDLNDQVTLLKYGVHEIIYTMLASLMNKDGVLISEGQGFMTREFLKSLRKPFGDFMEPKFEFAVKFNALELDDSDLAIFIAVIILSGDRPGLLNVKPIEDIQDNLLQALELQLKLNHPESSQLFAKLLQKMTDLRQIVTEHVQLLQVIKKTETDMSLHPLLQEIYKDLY

[4] = test system: human kidney cancer; settings: Test Example 7 in WO 2007/091622, cited from earlier work
[5] = test system: human non-small-cell lung cancer; settings: Test Example 5 in WO 2007/091622, cited from earlier work
[6] = test system: cancer cells; settings: in combination with an epidermal growth factor receptor (EGFR) inhibitor; Test Example 4 in WO 2007/091622; cited from earlier work
[7] = test system: human leukemia cells; settings: Test Example 2 in WO 2007/091622; cited from earlier work
[8] = test system: cancer cells including human stomach cancer cells, human breast cancer cells, small cell lung cancer, pancreas cancer cells, prostate cancer cells, kidney …; settings: Test Example 1 in WO 2007/091622; cited from earlier work
[9] = test system: cancer cells; settings: in combination with a VEGFR inhibitor or a Raf kinase inhibitor; Test Example 6 in WO 2007/091622; cited from earlier work
[10] = test system: human colon cancer cell lines; settings: Test Example 3 in WO 2007/091622; cited from earlier work

Question: Which “The concentration of 5-(4-{[6-(4-amino-3,5-dimethylphenoxy)-1-methyl-1-H-benzimidazol-2-yl]methoxy}benzyl)-1,3-thiazolidine-2,4-dione in dilute hydrochloric acid” value ([1]; dihydrochloride monohydrate) does the source give for `Cc1cc(Oc2ccc3nc(COc4ccc(CC5SC(=O)NC5=O)cc4)n(C)c3c2)cc(C)c1N.Cl.Cl.O` (centres unmarked) [5-(4-{[6-(4-amino-3,5-dimethylphenoxy)-1-methyl-1-H-benzimidazol-2-yl]methoxy}benzyl)-1,3-thiazolidine-2,4-dione dihydrochloride monohydrate] here?
Answer: 0.276 mg/g

Question: Which “activity to ameliorate insulin resistance and to reduce blood sugar” value [2] does the source give for `Cc1cc(Oc2ccc3nc(COc4ccc(CC5SC(=O)NC5=O)cc4)n(C)c3c2)cc(C)c1N` (centres unmarked) [Compound (I), 5-(4-{[6-(4-amino-3,5-dimethylphenoxy)-1-methyl-1-H-benzimidazol-2-yl]methoxy}benzyl)-1,3-thiazolidine-2,4-dione] here?
Answer: significant activity to ameliorate insulin resistance and to reduce blood sugar

Question: And the “ability to activate PPAR γ” value [3]?
Answer: significant ability to activate

Question: For `Cc1cc(Oc2ccc3nc(COc4ccc(CC5SC(=O)NC5=O)cc4)n(C)c3c2)cc(C)c1N.Cl.Cl.O` (centres unmarked) [Crystalline form A, 5-(4-{[6-(4-amino-3,5-dimethylphenoxy)-1-methyl-1-H-benzimidazol-2-yl]methoxy}benzyl)-1,3-thiazolidine-2,4-dione dihydrochloride monohydrate], which “The concentration of 5-(4-{[6-(4-amino-3,5-dimethylphenoxy)-1-methyl-1-H-benzimidazol-2-yl]methoxy}benzyl)-1,3-thiazolidine-2,4-dione in dilute hydrochloric acid” value ([1]; listed as Crystalline form A manufactured according to Example 4, dihydrochloride monohydrate) is on record?
Answer: 0.325 mg/g

Question: What about the “Solubility / concentration in dilute hydrochloric acid, comparison in words” value ([1]; dilute hydrochloric acid, dihydrochloride monohydrate) of the same molecule?
Answer: highest concentration among the dihydrochloride monohydrate crystalline forms; also recorded: higher solubility than Crystalline form B

Question: With `Cc1cc(Oc2ccc3nc(COc4ccc(CC5SC(=O)NC5=O)cc4)n(C)c3c2)cc(C)c1N.Cl.Cl` (centres unmarked) [dihydrochloride of Compound (I), 5-(4-{[6-(4-amino-3,5-dimethylphenoxy)-1-methyl-1-H-benzimidazol-2-yl]methoxy}benzyl)-1,3-thiazolidine-2,4-dione dihydrochloride] as the molecule, how does the “antitumor activity against human kidney cancer” value ([4]; alone) read?
Answer: has antitumor activity

Question: What about the “antitumor activity against human kidney cancer in combination” value ([4]; in combination with a VEGFR inhibitor or a Raf kinase inhibitor) of the same molecule?
Answer: enhanced antitumor activity

Question: And the “antitumor activity against human non-small-cell lung cancer” value ([5]; alone)?
Answer: has antitumor activity

Question: And the “antitumor activity against human non-small-cell lung cancer in combination” value ([5]; in combination with an EGFR inhibitor)?
Answer: enhanced antitumor activity

Question: What about the “activity to inhibit the growth of cancer cells in combination” value [6] of the same molecule?
Answer: synergistic activity to inhibit the growth

Question: And the “growth inhibition of human leukemia cells” value [7]?
Answer: significantly inhibits the growth-inhibiting activity

Question: And the “activity to inhibit the growth of cancer cells” value [8]?
Answer: significant activity to inhibit the growth

Question: And the “activity to inhibit the growth of cancer cells in combination” value [9]?
Answer: synergistic activity to inhibit the growth

Question: And the “antitumor activity in vivo against human colon cancer cell lines” value [10]?
Answer: significant antitumor activity
